Laboratory results taken from PubChem BioAssay AID248 (DTP/NCI, 2004).
Several values for one entry are separate records, joined by “and”; a condition that tells them apart may be missing. Equal values may be shown once. Inconclusive results and toxic doses are left out. Rule as the data show it: active = T/C of 150% or more; inactive = T/C below 125%.

Test system: L1210 leukemia ip in BDF1 mice, survival T/C
Assay: NCI In Vivo Anticancer Drug Screen. Data for tumor model L1210 Leukemia (intraperitoneal) in B6D2F1 (BDF1) mice
Details: endpoint: mean survival time, higher = longer survival
Outline: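 Value reflects the ratio of survival in compound-treated mice to survival in vehicle-treated controls, with both groups carrying the same transplanted tumor.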

[1] = dose: 100.0 mg/kg/injection, schedule: Q01DX009 (ip), vehicle: saline with Tween-80
[2] = dose: 200.0 mg/kg/injection, schedule: Q01DX009 (ip), vehicle: saline with Tween-80
[3] = dose: 400.0 mg/kg/injection, schedule: Q01DX009 (ip), vehicle: saline with Tween-80
[4] = dose: 100.0 mg/kg/injection, schedule: Q01DX001 (ip), vehicle: Klucel (hydroxypropylcellulose) (HPC)
[5] = dose: 200.0 mg/kg/injection, schedule: Q01DX001 (ip), vehicle: Klucel (hydroxypropylcellulose) (HPC)
[6] = dose: 400.0 mg/kg/injection, schedule: Q01DX001 (ip), vehicle: Klucel (hydroxypropylcellulose) (HPC)
[7] = dose: 100.0 mg/kg/injection, schedule: Q04DX003 (ip), vehicle: gum acacia
[8] = dose: 200.0 mg/kg/injection, schedule: Q04DX003 (ip), vehicle: gum acacia
[9] = dose: 400.0 mg/kg/injection, schedule: Q04DX003 (ip), vehicle: gum acacia
[10] = dose: 100.0 mg/kg/injection, schedule: Q04DX002 (ip), vehicle: saline with Tween-80
[11] = dose: 200.0 mg/kg/injection, schedule: Q04DX002 (ip), vehicle: saline with Tween-80
[12] = dose: 400.0 mg/kg/injection, schedule: Q04DX002 (ip), vehicle: saline with Tween-80
[13] = dose: 100.0 mg/kg/injection, schedule: Q01DX009 (ip), vehicle: Klucel (hydroxypropylcellulose) (HPC)
[14] = dose: 200.0 mg/kg/injection, schedule: Q01DX009 (ip), vehicle: Klucel (hydroxypropylcellulose) (HPC)
[15] = dose: 100.0 mg/kg/injection, schedule: Q01DX001 (ip), vehicle: carboxymethylcellulose (CMC)
[16] = dose: 200.0 mg/kg/injection, schedule: Q01DX001 (ip), vehicle: carboxymethylcellulose (CMC)

Measured: T/C

CCOC(C)C(/C=N/NC(N)=S)=NNC(N)=S (stereo not drawn)
inactive: dose: 15.0 mg/kg/injection, schedule: Q01DX010 (ip), vehicle: saline 95 % of control | dose: 15.0 mg/kg/injection, schedule: Q01DX Z (ip), vehicle: carboxymethylcellulose (CMC) 101 % of control | dose: 30.0 mg/kg/injection, schedule: Q01DX010 (ip), vehicle: saline 89 % of control | dose: 30.0 mg/kg/injection, schedule: Q01DX Z (ip), vehicle: carboxymethylcellulose (CMC) 95 % of control | dose: 60.0 mg/kg/injection, schedule: Q01DX010 (ip), vehicle: saline 92 % of control | dose: 60.0 mg/kg/injection, schedule: Q01DX Z (ip), vehicle: carboxymethylcellulose (CMC) 100 % of control and 102 % of control | dose: 60.0 mg/kg/injection, schedule: Q01DX Z (oral), vehicle: carboxymethylcellulose (CMC) 100 % of control | dose: 120.0 mg/kg/injection, schedule: Q01DX Z (ip), vehicle: carboxymethylcellulose (CMC) 93 % of control and 103 % of control | dose: 120.0 mg/kg/injection, schedule: Q01DX Z (oral), vehicle: carboxymethylcellulose (CMC) 106 % of control | dose: 240.0 mg/kg/injection, schedule: Q01DX Z (oral), vehicle: carboxymethylcellulose (CMC) 93 % of control

Cc1ccc2c(c1)c(C)cc(=O)n2C
inactive: dose: 100.0 mg/kg/injection, schedule: Q01DX001 (ip), vehicle: other 96 % of control | dose: 200.0 mg/kg/injection, schedule: Q01DX001 (ip), vehicle: other 117 % of control

CN(C)c1ccc(/C=N/NC(=O)Cc2cccc3ccccc23)cc1
inactive: [1] 90 % of control | [2] 86 % of control | [3] 86 % of control

O=C(O)COc1cc(Cl)ccn1
inactive: dose: 100.0 mg/kg/injection, schedule: Q04DX002 (ip), vehicle: Klucel (hydroxypropylcellulose) (HPC) 100 % of control | dose: 200.0 mg/kg/injection, schedule: Q04DX002 (ip), vehicle: Klucel (hydroxypropylcellulose) (HPC) 93 % of control | dose: 400.0 mg/kg/injection, schedule: Q04DX002 (ip), vehicle: Klucel (hydroxypropylcellulose) (HPC) 110 % of control

O=C(COc1c(Cl)cc(Cl)cc1Cl)Nc1cccnc1
inactive: [4] 100 % of control | [5] 100 % of control | [6] 107 % of control

COc1cccc(CCCC(=O)O)c1OC
inactive: [7] 99 % of control | [8] 94 % of control | [9] 96 % of control

O=C(O)c1cc(C(=O)Nc2cccc3ccccc23)c(C(=O)O)cc1C(=O)Nc1cccc2ccccc12
inactive: [1] 96 % of control and 87 % of control | [10] 104 % of control and 116 % of control | dose: 100.0 mg/kg/injection, schedule: Q04DX003 (ip), vehicle: saline with Tween-80 100 % of control | [2] 97 % of control and 91 % of control | [11] 94 % of control and 103 % of control | dose: 200.0 mg/kg/injection, schedule: Q04DX003 (ip), vehicle: saline with Tween-80 105 % of control | [3] 100 % of control and 92 % of control | [12] 93 % of control and 89 % of control | dose: 400.0 mg/kg/injection, schedule: Q04DX003 (ip), vehicle: saline with Tween-80 98 % of control

Cc1ccc(S(=O)(=O)OCC(C)(C)NC(=O)c2ccc([N+](=O)[O-])cc2)cc1
inactive: dose: 100.0 mg/kg/injection, schedule: Q01DX001 (ip), vehicle: saline with Tween-80 91 % of control | dose: 200.0 mg/kg/injection, schedule: Q01DX001 (ip), vehicle: saline with Tween-80 105 % of control | dose: 400.0 mg/kg/injection, schedule: Q01DX001 (ip), vehicle: saline with Tween-80 91 % of control

CN(C)C1C=CS(=O)(=O)C1 (stereo not drawn)
inactive: [4] 106 % of control | [5] 106 % of control

CC(C)(C)c1cc(/C=N/NC(=O)CNC(=O)Nc2cccc(C(F)(F)F)c2)cc(C(C)(C)C)c1O
inactive: dose: 100.0 mg/kg/injection, schedule: Q01DX001 (ip), vehicle: gum acacia 92 % of control and 94 % of control | dose: 100.0 mg/kg/injection, schedule: Q04DX002 (ip), vehicle: gum acacia 98 % of control and 90 % of control | [7] 99 % of control and 87 % of control | dose: 200.0 mg/kg/injection, schedule: Q01DX001 (ip), vehicle: gum acacia 94 % of control and 90 % of control | dose: 200.0 mg/kg/injection, schedule: Q04DX002 (ip), vehicle: gum acacia 93 % of control | [8] 92 % of control and 96 % of control | dose: 400.0 mg/kg/injection, schedule: Q01DX001 (ip), vehicle: gum acacia 94 % of control and 102 % of control | dose: 400.0 mg/kg/injection, schedule: Q04DX002 (ip), vehicle: gum acacia 93 % of control and 87 % of control | [9] 92 % of control and 89 % of control

CCOC(=O)c1cn(C2OC(COC(=O)c3ccccc3)C(OC(=O)c3ccccc3)C2OC(=O)c2ccccc2)c(=O)nc1Nc1ccccc1Br (stereo not drawn)
inactive: dose: 100.0 mg/kg/injection, schedule: Q01DX005 (ip), vehicle: saline 97 % of control | dose: 200.0 mg/kg/injection, schedule: Q01DX005 (ip), vehicle: saline 97 % of control

Cc1ccc(NC(=O)COc2ccc(Cl)cc2)c(C)c1
inactive: [4] 99 % of control | [13] 100 % of control | dose: 100.0 mg/kg/injection, schedule: Q04DX003 (ip), vehicle: Klucel (hydroxypropylcellulose) (HPC) 96 % of control | [5] 99 % of control | [14] 102 % of control | dose: 200.0 mg/kg/injection, schedule: Q04DX003 (ip), vehicle: Klucel (hydroxypropylcellulose) (HPC) 96 % of control | [6] 99 % of control | dose: 400.0 mg/kg/injection, schedule: Q04DX003 (ip), vehicle: Klucel (hydroxypropylcellulose) (HPC) 98 % of control

CSc1nc(C)c(Br)c(Sc2nc(N)nc3nc[nH]c23)n1
inactive: dose: 100.0 mg/kg/injection, schedule: Q01DX Z (ip), vehicle: methylcellulose (MC) 87 % of control

Cn1ncc2ccccc21
inactive: dose: 62.5 mg/kg/injection, schedule: Q01DX009 (ip), vehicle: other 101 % of control | dose: 125.0 mg/kg/injection, schedule: Q01DX009 (ip), vehicle: other 102 % of control | dose: 250.0 mg/kg/injection, schedule: Q01DX009 (ip), vehicle: other 93 % of control

COc1ccc(C)cc1NC(=O)OCCOc1ccc(NC(C)=O)cc1
inactive: dose: 50.0 mg/kg/injection, schedule: Q01DX009 (ip), vehicle: saline with Tween-80 98 % of control | [1] 95 % of control | [2] 95 % of control

COc1ccc2c(c1)CC=CO2
inactive: [15] 107 % of control | [16] 94 % of control | dose: 400.0 mg/kg/injection, schedule: Q01DX001 (ip), vehicle: carboxymethylcellulose (CMC) 100 % of control

N#CCc1ccc(C(=O)O)cc1
inactive: [15] 106 % of control | [16] 92 % of control

CCn1c(C)nc2cc(S(=O)(=O)C(F)(F)C(F)Cl)ccc21 (stereo not drawn)
inactive: [4] 100 % of control | [13] 94 % of control | [5] 97 % of control | [14] 101 % of control | [6] 97 % of control | dose: 400.0 mg/kg/injection, schedule: Q01DX009 (ip), vehicle: Klucel (hydroxypropylcellulose) (HPC) 106 % of control

CCCCC(CCCC)CCCC
inactive: [10] 97 % of control | [11] 106 % of control | [12] 103 % of control
